Patent publication EP2647634A1, “Indole-pyrimidine derivatives and their therapeutic uses” (NOSCIRA, S.A., priority 2012, dated 2013)

Key:
[1] = target: T1, Human recombinant Cdk5/p35 heterodimer (Homo sapiens, UniProt Q00535); assay: Cdk5 assay (luminescent detection of ADP, ADP Glo); assay type: biochemical; settings: 10 nM enzyme, 10 µM ATP, 2 µM histone H1, 40 min incubation
T1 construct: purchased Life Technologies
Description: (§1) The enzymatic activity of Cdk5 is determined with a commercial system, available from Promega (Madison, WI, USA) based on the luminescent detection of ADP, the byproduct of the kinase reaction. Human recombinant Cdk5/p35 heterodimer (purchased from Life Technologies, Carlsbad, CA, USA) is used as the enzyme source. At the end of the enzymatic reaction the remaining ATP is destroyed and afterwards the ADP produced during the kinase reaction is converted into ATP, which is further converted into light using a suitable luciferase. Therefore, the luminescent signal positively correlates with kinase activity. The assay is performed in 96-well conical bottom black plates, in a final volume of 12 µl with 10 nM enzyme concentration in 40 mM Tris-HCl pH 7.4, 20 mM MgCl2 and 0.01% bovine serum albumin using 10 µM ATP and 2 µM substrate. […] The assay is carried out in the presence of different concentrations of the tested compound, at a final 1% (v/v) DMSO concentration. After a 40 min incubation, at room temperature, 12 µl of a commercial "ADP Glo" solution (from Promega) is added to remove the remaining ATP and a subsequent 40 min incubation at room temperature is performed before adding 24 µl of a suitable "detection reagent" (also supplied by Promega) needed to carry out the transformation of ADP into ATP and its conversion into light by the luciferase enzyme included in the reagent. After a final 30 min incubation at room temperature luminescence is monitored in a suitable plate reader. […] For that purpose the data were fitted to a version of the classical 4-parameters isotherm equation using the nonlinear regression function of GraphPad™ Prism 5.0 (GraphPad Software Inc.).

Human recombinant GSK-3β = target: T2, Human recombinant GSK-3β (Homo sapiens, UniProt P49841); assay: GSK-3β assay (luminescent detection of ADP); assay type: biochemical; settings: 4 nM enzyme, 5 µM ATP, 15 µM substrate peptide, 40 min incubation
T2 construct: purchased Millipore
T2 sequence (P49841 whole entry): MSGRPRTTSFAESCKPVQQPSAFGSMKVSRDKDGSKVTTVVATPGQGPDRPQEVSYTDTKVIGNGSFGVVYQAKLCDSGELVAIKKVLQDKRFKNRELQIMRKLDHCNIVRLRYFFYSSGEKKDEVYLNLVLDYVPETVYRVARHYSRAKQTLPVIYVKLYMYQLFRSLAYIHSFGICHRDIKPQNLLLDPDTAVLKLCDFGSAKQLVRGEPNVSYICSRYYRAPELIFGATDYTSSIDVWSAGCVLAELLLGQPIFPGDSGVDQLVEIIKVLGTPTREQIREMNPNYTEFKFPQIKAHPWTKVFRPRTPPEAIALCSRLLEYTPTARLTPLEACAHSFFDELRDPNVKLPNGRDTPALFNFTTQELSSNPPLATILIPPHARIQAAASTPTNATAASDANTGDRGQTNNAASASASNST
Description: as §1
The enzymatic activity of GSK-3β is determined with the same commercial system described above based on the luminescent detection of ADP. Human recombinant GSK-3β (purchased from Millipore) is used as the enzyme source. […] The assay is carried out in the presence of different concentrations of the tested compound at a final 1% (v/v) DMSO concentration.

Human recombinant CK1ε = target: T3, Human recombinant CK1ε (Homo sapiens, UniProt P49674); assay: CK1ε assay (luminescent detection of ADP); assay type: biochemical; settings: 10 nM enzyme, 50 µM ATP, 50 µM substrate peptide, 40 min incubation
T3 construct: purchased Life Technologies
T3 sequence (P49674 whole entry): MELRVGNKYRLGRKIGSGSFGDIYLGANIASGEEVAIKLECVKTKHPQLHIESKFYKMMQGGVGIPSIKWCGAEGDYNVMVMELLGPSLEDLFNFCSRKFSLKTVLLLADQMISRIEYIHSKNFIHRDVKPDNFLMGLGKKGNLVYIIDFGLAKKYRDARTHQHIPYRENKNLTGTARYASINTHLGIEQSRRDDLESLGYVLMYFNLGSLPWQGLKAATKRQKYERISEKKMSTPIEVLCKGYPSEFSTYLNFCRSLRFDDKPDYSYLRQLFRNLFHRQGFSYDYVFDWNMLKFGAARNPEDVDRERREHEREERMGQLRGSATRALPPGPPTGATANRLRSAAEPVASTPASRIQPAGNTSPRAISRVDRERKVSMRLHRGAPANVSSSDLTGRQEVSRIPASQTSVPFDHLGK
Description: as §1
The enzymatic activity of CK1ε is determined with the same commercial system described above based on the luminescent detection of ADP. Human recombinant CK1ε (purchased from Life Technologies) is used as the enzyme source. The assay is performed in 96-well conical bottom black plates, in a final volume of 12 µl with 10 nM enzyme concentration in 40 mM Tris-HCl pH 7.4, 20 mM MgCl2 and 0.01% bovine serum albumin using 50 µM ATP and 50 µM substrate peptide. The latter is a synthetic peptide provided by AnaSpec (Fremont, CA, USA) under the commercial name "CK1 peptide substrate" and it is based on the sequence of rabbit muscle glycogen synthase with Ser7 phosphorylated (the exact sequence of the peptide is KRRRAL(pS)VASLPGL, where (pS) denotes phospho-Ser). The assay is carried out in the presence of different concentrations of the tested compound at a final 1% (v/v) DMSO concentration.

[2] = test system: phosphorylation at the Ser-396 residue of Tau protein in human neuroblastoma SH-SY5Y cells; assay: Cellular assay: phosphorylation at Ser-396 of Tau protein (ELISA); assay type: cell-based; settings: 16 h incubation with compound, read-out: pSer396-Tau 16h pEC50 average (converted)
Description: The effect of the compounds in cells is determined by monitoring the level of phosphorylation at the Ser-396 residue of Tau protein in human neuroblastoma SH-SY5Y cells. Cells are grown in 96-well plates, 30,000 cells per well in a volume of 100 µl of 1:1 MEM:Ham's F12 medium including 10% (v/v) fetal bovine serum, 100 U/ml penicillin, 100 µg/ml streptomycin and 1% (v/v) 100-fold concentrated commercial stock of non-essential aminoacids (Gibco, Carlsbad, CA, USA), and incubated at 37°C during 24 h. Then, the corresponding amount of test compound is added to the wells to reach the desired concentration in 1% (v/v) DMSO. The system is incubated at 37°C during 16 h and afterwards cells are harvested, washed with phosphate buffer saline and incubated during 30 min on ice with 120 µl per well of "lysis buffer" (10 mM Tris-HCl pH 7.4, 100 mM NaCl, 1 mM EDTA, 2 mM sodium orthovanadate, 1% (v/v) Triton X-100, 10% (v/v) glycerol, 0.1% (w/v) sodium dodecyl sulfate, 0.5 % (w/v) sodium deoxycholate, 4% (v/v) 25-fold concentrated commercial stock of protease inhibitors (Roche, Basel, Switzerland) and 1 mM phenylmethylsulfonyl fluoride). 60 µl of this mixture is then placed in an empty 96-well plate and the levels of Ser-396 phosphorylation are determined using a commercial ELISA kit (Biosource, Carlsbad, CA, USA) following manufacturer's instructions. The levels of phosphrylation are expressed as percentage values after normalizing them to those in untreated cells and those values are used to calculate the pEC50s as described above.

T1 sequence (Q00535 whole entry): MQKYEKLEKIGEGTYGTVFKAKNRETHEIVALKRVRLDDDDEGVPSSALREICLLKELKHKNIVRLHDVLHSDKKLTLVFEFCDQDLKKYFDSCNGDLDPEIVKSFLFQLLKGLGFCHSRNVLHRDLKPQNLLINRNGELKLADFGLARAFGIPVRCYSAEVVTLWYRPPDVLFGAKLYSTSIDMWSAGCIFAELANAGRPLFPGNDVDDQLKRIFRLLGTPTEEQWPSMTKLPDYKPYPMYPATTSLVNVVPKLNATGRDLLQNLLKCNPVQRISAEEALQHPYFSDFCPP
T1 sequence (Q15078 whole entry partner): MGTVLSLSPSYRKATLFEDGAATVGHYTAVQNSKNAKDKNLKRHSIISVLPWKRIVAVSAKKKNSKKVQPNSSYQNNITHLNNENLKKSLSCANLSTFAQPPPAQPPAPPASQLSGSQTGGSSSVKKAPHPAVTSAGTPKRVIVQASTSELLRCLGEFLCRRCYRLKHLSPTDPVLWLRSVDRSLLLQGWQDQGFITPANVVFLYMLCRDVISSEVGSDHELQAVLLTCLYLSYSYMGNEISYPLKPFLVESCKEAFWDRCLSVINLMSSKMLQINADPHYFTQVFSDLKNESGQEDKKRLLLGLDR

Row | EC50 ([1]; read-out: Cdk5 inhibition pEC50 average (converted)) [nM] | EC50 (Human recombinant GSK-3β; read-out: GSK3β inhibition pEC50 average (converted)) [nM] | EC50 (Human recombinant CK1ε; read-out: CK1 inhibition pEC50 average (converted)) [µM] | SMILES | Cdk5 inhibition pEC50 average [1] | GSK3β inhibition pEC50 average (Human recombinant GSK-3β) | CK1 inhibition pEC50 average (Human recombinant CK1ε) | EC50 [2] [nM]
1 | 501 | 398 | 3.16 | Cc1cc(-c2c(O)[nH]c3ccccc23)nc(N)n1 [Comparative example, reference compound] | – | – | – | –
2 | – | – | – | Nc1nccc(-c2c(O)[nH]c3ccccc23)n1 [Compound 1, 3-(2-Amino-4-pyrimidinyl)-2-oxoindole] | 8.2 | 6.9 | 6.1 | –
3 | – | – | – | CS(=O)(=O)c1ccc2c(-c3ccnc(N)n3)c(O)[nH]c2c1 [Compound 2, 3-(2-Amino-4-pyrimidinyl) -6-methanesulfonyl-2-oxoindole] | 6.7 | 5.3 | 5.4 | –
4 | – | – | – | Nc1nccc(-c2c(O)[nH]c3ccc(Br)cc23)n1 [Compound 3, 3-(2-Amino-4-pyrimidinyl)-5-Bromo-2-oxoindole] | 8.3 | 7.8 | 6.1 | –
5 | – | – | – | Nc1nccc(-c2c(O)[nH]c3ccc(F)cc23)n1 [Compound 4, 3-(2-Amino-4-pyrimidinyl) -5-Fluoro-2-oxoindole] | 7.5 | 7.5 | 6.5 | 1260
6 | – | – | – | Nc1nccc(-c2c(O)[nH]c3ccc(Cl)cc23)n1 [Compound 5, 3-(2-Amino-4-pyrimidinyl) -5-Chloro-2-oxoindole] | 8.8 | 7.9 | 6.7 | 316
7 | – | – | – | Nc1nccc(-c2c(O)[nH]c3ccc([N+](=O)[O-])cc23)n1 [Compound 6, 3-(2-Amino-4-pyrimidinyl) -5-Nitro-2-oxoindole] | 6.9 | 6.7 | 4.7 | 10000
8 | – | – | – | COC(=O)c1ccc2c(-c3ccnc(N)n3)c(O)[nH]c2c1 [Compound 7, 3-(2-Amino-4-pyrimidinyl) -2-oxoindole-6-carboxylic acid methyl ester] | 6.8 | 6.6 | 5.9 | –
9 | – | – | – | Nc1nccc(-c2c(O)[nH]c3ccc(F)c(F)c23)n1 [Compound 8, 3-(2-Amino-4-pyrimidinyl)-4,5-difluoro-2-oxoindol] | 7.6 | 7.6 | < 4 | –
